Laboratory results as given in ChEMBL document CHEMBL1201862, “PubChem BioAssay data set” (2004).
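Compound exposure: 48 hours, 5 concentrations, 96-well plates. GI50 = concentration required for 50% inhibition of growth.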 Calls of active or inactive are those of the source. No stated cut-off is given here; in the data, active = GI50 up to about 1.1 µM and inactive = higher.

Experiments:
Assay in all cases: NCI anticancer screen, dose series, 48 h
CAKI-1 = system: CAKI-1
HOP-62 = system: HOP-62
HOP-92 = system: HOP-92
HT-29 = system: HT-29
IGROV-1 = system: IGROV-1
NCI-H226 = system: NCI-H226
NCI-H23 = system: NCI-H23
OVCAR-3 = system: OVCAR-3
OVCAR-8 = system: OVCAR-8
RPMI-8226 = system: RPMI-8226
SF-268 = system: SF-268
SF-295 = system: SF-295
SF-539 = system: SF-539
SK-OV-3 = system: SK-OV-3
SNB-19 = system: SNB-19
SW-620 = system: SW-620
TK-10 = system: TK-10
U-251 = system: U-251
UACC-257 = system: UACC-257

| Compound | GI50 (CAKI-1) | GI50 (HOP-62) | GI50 (HOP-92) | GI50 (HT-29) | GI50 (IGROV-1) | GI50 (NCI-H226) | GI50 (NCI-H23) | GI50 (OVCAR-3) | GI50 (OVCAR-8) | GI50 (RPMI-8226) | GI50 (SF-268) | GI50 (SF-295) | GI50 (SF-539) | GI50 (SK-OV-3) | GI50 (SNB-19) | GI50 (SW-620) | GI50 (TK-10) | GI50 (U-251) | GI50 (UACC-257) |
| --- | --- | --- | --- | --- | --- | --- | --- | --- | --- | --- | --- | --- | --- | --- | --- | --- | --- | --- | --- |
| CC1(C)CCc2cc3c(cc2O1)OCCC3=O | 92.7 µM (inactive) | > 100 µM (inactive) | > 100 µM (inactive) | > 100 µM (inactive) | > 100 µM (inactive) | > 100 µM (inactive) | > 100 µM (inactive) | > 100 µM (inactive) | > 100 µM (inactive) | 96.2 µM (inactive) | > 100 µM (inactive) | > 100 µM (inactive) | > 100 µM (inactive) | > 100 µM (inactive) | > 100 µM (inactive) | > 100 µM (inactive) | > 100 µM (inactive) | > 100 µM (inactive) | > 100 µM (inactive) |
| CCOC(=O)NN1C(=O)C(=P(c2ccccc2)(c2ccccc2)c2ccccc2)C(C(=O)OC)=C1C | > 100 µM (inactive) | > 100 µM (inactive) | > 100 µM (inactive) | > 100 µM (inactive) | > 100 µM (inactive) | > 100 µM (inactive) | > 100 µM (inactive) | > 100 µM (inactive) | > 100 µM (inactive) | > 100 µM (inactive) | > 100 µM (inactive) | > 100 µM (inactive) | > 100 µM (inactive) | > 100 µM (inactive) | > 100 µM (inactive) | > 100 µM (inactive) | > 100 µM (inactive) | > 100 µM (inactive) | > 100 µM (inactive) |
| O=c1c2cc(Br)ccc2nc(CNc2ccccc2)n1-c1ccccc1 | 3.02 µM (inactive) | 30.9 µM (inactive) | 19.1 µM (inactive) | 16.7 µM (inactive) | 15.8 µM (inactive) | 18.5 µM (inactive) | 13.6 µM (inactive) | 21.8 µM (inactive) | 23.3 µM (inactive) | 8.97 µM (inactive) | 17.4 µM (inactive) | 24.2 µM (inactive) | 16.2 µM (inactive) | 36.2 µM (inactive) | 26.9 µM (inactive) | 12.7 µM (inactive) | 21.7 µM (inactive) | 15.2 µM (inactive) | 23.2 µM (inactive) |
| O=c1c2cccnc2ncn1CCN1CCCC1 | > 100 µM (inactive) | > 100 µM (inactive) | > 100 µM (inactive) | > 100 µM (inactive) | > 100 µM (inactive) | > 100 µM (inactive) | > 100 µM (inactive) | > 100 µM (inactive) | > 100 µM (inactive) |  | > 100 µM (inactive) | > 100 µM (inactive) | > 100 µM (inactive) | > 100 µM (inactive) | > 100 µM (inactive) | > 100 µM (inactive) | > 100 µM (inactive) | > 100 µM (inactive) |  |
| COC(=O)N(C(=O)OC)C(C(=O)O)C(C)C (stereo unspecified) | > 100 µM (inactive) | > 100 µM (inactive) | 95.9 µM (inactive) | > 100 µM (inactive) |  | > 100 µM (inactive) | > 100 µM (inactive) |  | > 100 µM (inactive) |  | > 100 µM (inactive) | > 100 µM (inactive) | > 100 µM (inactive) |  | > 100 µM (inactive) | > 100 µM (inactive) | > 100 µM (inactive) | > 100 µM (inactive) | > 100 µM (inactive) |
| CC1(O)C(C)(O)C(C)(O)C1(C)O (stereo unspecified) | > 100 µM (inactive) | > 100 µM (inactive) | > 100 µM (inactive) | > 100 µM (inactive) | > 100 µM (inactive) | > 100 µM (inactive) | > 100 µM (inactive) | > 100 µM (inactive) | > 100 µM (inactive) |  | > 100 µM (inactive) | > 100 µM (inactive) | > 100 µM (inactive) | > 100 µM (inactive) | > 100 µM (inactive) | > 100 µM (inactive) | > 100 µM (inactive) | > 100 µM (inactive) | > 100 µM (inactive) |
| Cc1cccc(NC(=O)/C=C/c2ccc(N(CCC#N)CCC#N)cc2C)c1 | > 100 µM (inactive) | > 100 µM (inactive) | > 100 µM (inactive) | > 100 µM (inactive) | > 100 µM (inactive) | > 100 µM (inactive) | > 100 µM (inactive) | > 100 µM (inactive) | > 100 µM (inactive) | > 100 µM (inactive) | 81.5 µM (inactive) | > 100 µM (inactive) | > 100 µM (inactive) | > 100 µM (inactive) | > 100 µM (inactive) | > 100 µM (inactive) | > 100 µM (inactive) | > 100 µM (inactive) | > 100 µM (inactive) |
| CC(=O)OC1COC(n2c(=S)n(-c3ccccc3)c(=O)c3cc(Br)ccc32)C(OC(C)=O)C1OC(C)=O (stereo unspecified) | 42 µM (inactive) | 19.5 µM (inactive) | 19.5 µM (inactive) | 72.1 µM (inactive) | 45.1 µM (inactive) | 83.4 µM (inactive) | 43.7 µM (inactive) | 73.3 µM (inactive) | 36.1 µM (inactive) | 33.9 µM (inactive) | 29.1 µM (inactive) | 27.5 µM (inactive) | 22.4 µM (inactive) | 32.8 µM (inactive) | 25.2 µM (inactive) | > 100 µM (inactive) |  | 14.6 µM (inactive) | 55.2 µM (inactive) |
| CCCCCCCCCCCc1noc2c1C(=O)C(O)CC2 (stereo unspecified) | 32.8 µM (inactive) | 45.8 µM (inactive) | 20.1 µM (inactive) | 18.8 µM (inactive) | 50 µM (inactive) | 16.1 µM (inactive) | 16.3 µM (inactive) | 17.5 µM (inactive) | 18.9 µM (inactive) | 25 µM (inactive) | 38.5 µM (inactive) | 21.2 µM (inactive) | 22.2 µM (inactive) | 25.7 µM (inactive) | 22.1 µM (inactive) | 18 µM (inactive) | 56.6 µM (inactive) | 14.6 µM (inactive) | 20.5 µM (inactive) |
| NC(CCc1ncc(C(=O)O)s1)C(=O)O (stereo unspecified) | > 100 µM (inactive) |  | > 100 µM (inactive) | > 100 µM (inactive) | > 100 µM (inactive) | > 100 µM (inactive) | > 100 µM (inactive) | > 100 µM (inactive) | > 100 µM (inactive) | > 100 µM (inactive) |  | > 100 µM (inactive) | > 100 µM (inactive) | > 100 µM (inactive) | > 10 µM (inactive) | > 100 µM (inactive) | > 100 µM (inactive) | > 100 µM (inactive) | > 100 µM (inactive) |
| C=C1C[C@]23C[C@@]1(O)CC[C@H]2[C@@]12C=C[C@H](O)[C@@](C)(C(=O)O1)[C@H]2[C@@H]3C(=O)O [GIBBERELLIN A3] | > 100 µM (inactive) | > 100 µM (inactive) | > 100 µM (inactive) | > 100 µM (inactive) | > 100 µM (inactive) | > 100 µM (inactive) | > 100 µM (inactive) | > 100 µM (inactive) |  | > 100 µM (inactive) | > 100 µM (inactive) | > 100 µM (inactive) | > 100 µM (inactive) | > 100 µM (inactive) | > 100 µM (inactive) | > 100 µM (inactive) | > 100 µM (inactive) | > 100 µM (inactive) | > 100 µM (inactive) |
| CC(C)C.C[N+](C)(C)C.OC(c1ccccc1)(C(F)(F)F)C(F)(F)F.OC(c1ccccc1)(C(F)(F)F)C(F)(F)F.[SiH3-] | 11.3 µM (inactive) |  | < 0.01 µM (active) | 3.64 µM (inactive) |  | 1.02 µM (active) | 3.25 µM (inactive) | 0.678 µM (active) | 9.23 µM (inactive) | 4.43 µM (inactive) |  | 3.42 µM (inactive) | 2.51 µM (inactive) |  | 3.26 µM (inactive) | 5 µM (inactive) | 12.6 µM (inactive) | 2.07 µM (inactive) | 14.1 µM (inactive) |
| C/C(CC(=O)Nc1ccc(C)c(C)c1)=N\N(c1ccccc1)c1ccccc1 | 80.7 µM (inactive) | > 100 µM (inactive) | > 100 µM (inactive) | > 100 µM (inactive) | 64.4 µM (inactive) | > 100 µM (inactive) | > 100 µM (inactive) | > 100 µM (inactive) | > 100 µM (inactive) | 47.1 µM (inactive) | 58.7 µM (inactive) | > 100 µM (inactive) | > 100 µM (inactive) | > 100 µM (inactive) | > 100 µM (inactive) |  | > 100 µM (inactive) | 15.2 µM (inactive) | > 100 µM (inactive) |
| [N-]=[N+]=NC(c1cn(C2CC(O)C(CO)O2)c(=O)[nH]c1=O)C(Br)I (stereo unspecified) | > 100 µM (inactive) | > 100 µM (inactive) | > 100 µM (inactive) | > 100 µM (inactive) | > 100 µM (inactive) | > 100 µM (inactive) | > 100 µM (inactive) | > 100 µM (inactive) | > 100 µM (inactive) | > 100 µM (inactive) |  | > 100 µM (inactive) | > 100 µM (inactive) | > 100 µM (inactive) | > 100 µM (inactive) | > 100 µM (inactive) | > 100 µM (inactive) | > 100 µM (inactive) |  |
| O=C(c1ccccc1)c1c(CC(O)c2ccccn2)n(C(=O)c2ccccc2)c2ccccc12 (stereo unspecified) | 36.6 µM (inactive) | 17.9 µM (inactive) | 18.9 µM (inactive) | 15 µM (inactive) | 23.7 µM (inactive) | 20.5 µM (inactive) | 22.1 µM (inactive) | 17.5 µM (inactive) | 29.2 µM (inactive) | 21.3 µM (inactive) | 28.3 µM (inactive) | 20.2 µM (inactive) | 16.7 µM (inactive) |  | 34.1 µM (inactive) | 31.4 µM (inactive) | 38.4 µM (inactive) | 25.1 µM (inactive) | 17.7 µM (inactive) |
